Source: ChEMBL document CHEMBL5370592, “Synthesis and Structure-Activity Relationships of a New Class of Oxadiazoles Targeting DprE1 as Antitubercular Agents” (ACS Med Chem Lett, 2023)
Converted amounts (≈) assume the structure as drawn. The source made the active and inactive calls. The rule behind the calls is not given here.

Legend:
[1] = test system: Mycobacterium tuberculosis; test: Antitubercular activity against Mycobacterium tuberculosis K04b00DS assessed as inhibition of bacterial growth incubated for 2 weeks; format: functional; conditions: 336 h
[2] = test system: Mycobacterium tuberculosis; test: Antitubercular activity against Mycobacterium tuberculosis clinical strain K5072429 assessed as inhibition of bacterial growth incubated for 2 weeks; format: functional; conditions: K5072429, 336 h
[3] = test system: Mycobacterium tuberculosis; test: Antitubercular activity against Mycobacterium tuberculosis H37Rv ATCC 27294 assessed as inhibition of bacterial growth incubated for 2 weeks; format: functional; conditions: H37Rv ATCC 27294, 336 h
[4] = test system: Mycobacterium tuberculosis; test: Antitubercular activity against Mycobacterium tuberculosis K14b00DS assessed as inhibition of bacterial growth incubated for 2 weeks; format: functional; conditions: 336 h
[5] = test system: Mycobacterium tuberculosis; test: Antitubercular activity against Mycobacterium tuberculosis K16b00DS assessed as inhibition of bacterial growth incubated for 2 weeks; format: functional; conditions: 336 h
[6] = test system: Mycobacterium tuberculosis; test: Antitubercular activity against Mycobacterium tuberculosis K11b00DS assessed as inhibition of bacterial growth incubated for 2 weeks; format: functional; conditions: 336 h
[7] = test system: Mycobacterium tuberculosis; test: Antitubercular activity against Mycobacterium tuberculosis K09b00DS assessed as inhibition of bacterial growth incubated for 2 weeks; format: functional; conditions: 336 h
[8] = test system: Mycobacterium tuberculosis; test: Antitubercular activity against Mycobacterium tuberculosis HN878 assessed as inhibition of bacterial growth incubated for 2 weeks; format: functional; conditions: HN878, 336 h
[9] = test system: Mycobacterium tuberculosis; test: Antitubercular activity against Mycobacterium tuberculosis K15b00DS assessed as inhibition of bacterial growth incubated for 2 weeks; format: functional; conditions: 336 h
[10] = test system: Mycobacterium tuberculosis; test: Antitubercular activity against Mycobacterium tuberculosis K13b00DS assessed as inhibition of bacterial growth incubated for 2 weeks; format: functional; conditions: 336 h
[11] = test system: Mycobacterium tuberculosis; test: Antitubercular activity against Mycobacterium tuberculosis CDC1551 assessed as inhibition of bacterial growth incubated for 2 weeks; format: functional; conditions: CDC1551, 336 h
[12] = test system: Mycobacterium tuberculosis; test: Antitubercular activity against Mycobacterium tuberculosis K07b00DS assessed as inhibition of bacterial growth incubated for 2 weeks; format: functional; conditions: 336 h
[13] = test system: Mycobacterium tuberculosis; test: Antitubercular activity against Mycobacterium tuberculosis K05b00DS assessed as inhibition of bacterial growth incubated for 2 weeks; format: functional; conditions: 336 h
[14] = test system: Mycobacterium tuberculosis; test: Antitubercular activity against Mycobacterium tuberculosis K12b00DS assessed as inhibition of bacterial growth incubated for 2 weeks; format: functional; conditions: 336 h
[15] = test system: Mycobacterium tuberculosis; test: Antitubercular activity against Mycobacterium tuberculosis Erdman assessed as inhibition of bacterial growth incubated for 2 weeks; format: functional; conditions: 336 h
[16] = test system: Mycobacterium tuberculosis; test: Antitubercular activity against Mycobacterium tuberculosis K35b00DS assessed as inhibition of bacterial growth incubated for 2 weeks; format: functional; conditions: 336 h
[17] = test system: Mycobacterium tuberculosis; test: Antitubercular activity against Mycobacterium tuberculosis NIH_G12 assessed as inhibition of bacterial growth incubated for 2 weeks; format: functional; conditions: NIH_G12, 336 h
[18] = test system: Mycobacterium tuberculosis; test: Antitubercular activity against Mycobacterium tuberculosis K17b00DS assessed as inhibition of bacterial growth incubated for 2 weeks; format: functional; conditions: 336 h
[19] = test system: Mycobacterium tuberculosis; test: Antitubercular activity against Mycobacterium tuberculosis K10b00DS assessed as inhibition of bacterial growth incubated for 2 weeks; format: functional; conditions: 336 h
[20] = test system: Mycobacterium tuberculosis; test: Antitubercular activity against Mycobacterium tuberculosis H37Rv ATCC 27294 assessed as inhibition of bacterial growth cultured in Middlebrook 7H9/ADC/Tween 80 with cydC::aph medium for 2 weeks; format: functional; conditions: H37Rv ATCC 27294, 336 h
[21] = Cytotoxicity against human HepG2 cells assessed as reduction in cell viability incubated for 24 hrs in DMEM/10% FBS supplemented with glucose by CellTiter-Glo luminescent assay; format: toxicity, cell-based
[22] = test system: Mycobacterium tuberculosis; test: Induction of DNA damage in Mycobacterium tuberculosis H37Rv transfected with PradA-LUX reporter assessed as induction of radA reporter gene expression incubated for 12 days by bioluminescence analysis; format: functional, organism-based; conditions: time 12.0 day
[23] = Cytotoxicity against human HepG2 cells assessed as reduction in cell viability incubated for 24 hrs in DMEM/10% FBS supplemented with galactose by CellTiter-Glo luminescent assay; format: toxicity, cell-based
[24] = test system: Mycobacterium tuberculosis; test: Antitubercular activity against Mycobacterium tuberculosis H37RV ATCC 27294 assessed as inhibition of bacterial growth cultured in Middlebrook 7H9/cholesterol/BSA/Tyloxapol medium for 2 weeks; format: functional; conditions: H37Rv ATCC 27294, 336 h
[25] = test system: Mycobacterium tuberculosis; test: Induction of DNA damage in Mycobacterium tuberculosis H37Rv transfected with PrecA-LUX reporter assessed as induction of recA reporter gene expression incubated for 12 days by bioluminescence analysis; format: functional, organism-based; conditions: time 12.0 day
[26] = test system: Mycobacterium tuberculosis; test: Antitubercular activity against Mycobacterium tuberculosis infected in mouse J774 cells assessed as decrease in colony forming unit enumeration on solid medium at 5XMIC measured after 7 days; format: functional, organism-based; conditions: time 7.0 day
[27] = test system: Mycobacterium tuberculosis; test: Antitubercular activity against Mycobacterium tuberculosis H37Rv ATCC 27294 assessed as inhibition of bacterial growth cultured in Middlebrook 7H9/glucose/casitone/tyloxapol medium for 2 weeks; format: functional; conditions: H37Rv ATCC 27294, 336 h
[28] = test system: Mycobacterium tuberculosis; test: Antitubercular activity against Mycobacterium tuberculosis H37Rv ATCC 27294 assessed as inhibition of bacterial growth cultured in Middlebrook 7H9/BSA/Tyloxapol with glucose medium for 2 weeks; format: functional; conditions: H37Rv ATCC 27294, 336 h
[29] = test system: Mycobacterium tuberculosis; test: Antitubercular activity against Mycobacterium tuberculosis H37Rv ATCC 27294 assessed as inhibition of bacterial growth cultured in Middlebrook 7H9/DPPC/cholesterol/BSA/Tyloxapol medium for 2 weeks; format: functional; conditions: H37Rv ATCC 27294, 336 h
[30] = target: T1, Decaprenylphosphoryl-beta-D-ribose oxidase (Mycobacterium tuberculosis (strain ATCC 25618 / H37Rv)) (UniProt P9WJF1); test: Inhibition of DprE1-mediated cell wall synthesis in Mycobacterium tuberculosis H37Rv transfected with PiniB-LUX reporter assessed as induction of reporter gene expression incubated for 12 days by bioluminescence analysis; conditions: time 12.0 day
T1 sequence (whole entry): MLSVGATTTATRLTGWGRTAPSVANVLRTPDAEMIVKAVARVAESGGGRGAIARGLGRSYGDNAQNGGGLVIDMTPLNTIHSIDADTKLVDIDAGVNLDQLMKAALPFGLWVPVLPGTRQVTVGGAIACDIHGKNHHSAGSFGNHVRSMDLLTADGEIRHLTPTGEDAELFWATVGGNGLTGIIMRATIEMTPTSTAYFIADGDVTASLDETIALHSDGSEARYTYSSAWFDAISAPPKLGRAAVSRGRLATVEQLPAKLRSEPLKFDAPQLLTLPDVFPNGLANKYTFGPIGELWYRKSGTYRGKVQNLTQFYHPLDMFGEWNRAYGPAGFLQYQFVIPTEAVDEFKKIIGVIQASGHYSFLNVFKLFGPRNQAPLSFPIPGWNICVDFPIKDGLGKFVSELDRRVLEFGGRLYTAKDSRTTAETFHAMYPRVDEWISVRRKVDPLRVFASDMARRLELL

[31] = test system: Mycobacterium tuberculosis; test: Antitubercular activity against Mycobacterium tuberculosis H37Rv ATCC 27294 assessed as inhibition of bacterial growth cultured in Middlebrook 7H9/ADC/Tween 80 medium for 2 weeks; format: functional; conditions: H37Rv ATCC 27294, 336 h

Structure (SMILES)	MIC [1] [µM]	MIC [2] [µM]	MIC [3] [µM]	MIC [4] [µM]	MIC [5] [µM]	MIC [6] [µM]	MIC [7] [µM]	MIC [8] [µM]	MIC [9] [µM]	MIC [10] [µM]	MIC [11] [µM]	MIC [12] [µM]	MIC [13] [µM]	MIC [14] [µM]	MIC [15] [µM]	MIC [16] [µM]	MIC [17] [µM]	MIC [18] [µM]	MIC [19] [µM]	other results
COc1nc2ccc(Br)cc2cc1[C@@H](c1ccccc1)[C@@](O)(CCN(C)C)c1cccc2ccccc12 [BEDAQUILINE]	0.04 (≈ 0.0222 µg/mL)	0.2 (≈ 0.111 µg/mL)	0.15 (≈ 0.0833 µg/mL)	0.6 (≈ 0.333 µg/mL)	0.1 (≈ 0.0556 µg/mL)	0.3 (≈ 0.167 µg/mL)	0.2 (≈ 0.111 µg/mL)	0.05 (≈ 0.0278 µg/mL)	0.07 (≈ 0.0389 µg/mL)	0.1 (≈ 0.0556 µg/mL)	0.07 (≈ 0.0389 µg/mL)	0.15 (≈ 0.0833 µg/mL)	0.05 (≈ 0.0278 µg/mL)	0.04 (≈ 0.0222 µg/mL)	0.1 (≈ 0.0556 µg/mL)	0.07 (≈ 0.0389 µg/mL)	0.05 (≈ 0.0278 µg/mL)	0.07 (≈ 0.0389 µg/mL)	0.1 (≈ 0.0556 µg/mL)	
O=C(C1CCN(c2nnc(-c3ccccc3)o2)CC1)N1CCC(Cc2ccccc2)CC1	0.78 (≈ 0.336 µg/mL)	2.3 (≈ 0.99 µg/mL)	0.6 (≈ 0.258 µg/mL)	1.2 (≈ 0.517 µg/mL)	0.78 (≈ 0.336 µg/mL)	1.56 (≈ 0.672 µg/mL)	1.2 (≈ 0.517 µg/mL)	0.78 (≈ 0.336 µg/mL)	0.78 (≈ 0.336 µg/mL)	1.2 (≈ 0.517 µg/mL)	0.6 (≈ 0.258 µg/mL)	1.2 (≈ 0.517 µg/mL)	1.2 (≈ 0.517 µg/mL)	1.56 (≈ 0.672 µg/mL)	0.39 (≈ 0.168 µg/mL)	1.2 (≈ 0.517 µg/mL)	0.78 (≈ 0.336 µg/mL)	0.78 (≈ 0.336 µg/mL)	1.2 (≈ 0.517 µg/mL)	MIC [20]: 0.6 µM (≈ 0.258 µg/mL); IC50 at 24 h [21]: > 50 µM; Activity [22]: inactive; IC50 at 24 h [23]: 37.5 µM; MIC [24]: 0.78 µM (≈ 0.336 µg/mL); Activity [25]: inactive; Activity [26]: Active; MIC [27]: 0.1 µM (≈ 0.0431 µg/mL); MIC [28]: 0.78 µM (≈ 0.336 µg/mL); MIC [29]: 0.6 µM (≈ 0.258 µg/mL); inhibition [30]: Active; MIC [31]: 0.78 µM (≈ 0.336 µg/mL)
